According to publication PMC5336612, “Therapeutic effects of different doses of polyethylene glycosylated porcine glucagon-like peptide-2 on ulcerative colitis in male rats” (BMC Gastroenterology, 2017):
Values joined by “and” are separate entries in the source; they are usually repeats but may differ in a detail not shown here. Equal values may be shown once. Read-outs that look alike come from different tables or passages of the source. Marks after values point to notes of the source that are not given here. Where no end group is shown, it is not given here.

What was measured:
[1] = rat, in vivo; cited from earlier work
[2] = in vivo, cited from earlier work
[3] = tested on: Occludin; experiment: Real-time PCR expression in colon; format: in vivo, rat; conditions: DSS colitis rats, compared with DSS group, RT-PCR
Protocol: (§1) Total RNA was isolated using RNAiso Plus kits following the manufacturers’ instructions. A 2 μL aliquot of the total RNA was used for first-strand cDNA synthesis using PrimeScript® RT-reagent Kit with gDNA Eraser. Real-time PCR was carried out with ABI plus one (Life Technologies, Carlsbad, CA, USA) using SYBR Premix Ex TaqTM. The primers used were in Table 1. RT-PCR analysis was performed with an ABI Step One Plus Real-Time PCR System (Applied Biosystems, Inc.) using SYBR® Premix Ex TaqTM. PCR reactions were performed in triplicate under the following conditions: 95 °C for 30 s; 40 cycles of 95 °C for 5 s and 60 °C for 30 s. Fluorescent data for quantification were collected at the end of each cycle. Melting curve analysis was performed at 55–95 °C to verify the single product generation at the end of the assay. Standard curves were generated based on the data obtained from the standards of the 2–2^−6 dilution series template. Standard curve analysis was performed by using Step One Software (v2.2, Applied Biosystems, Inc.). Data were normalised to GADPH using the 2^−△△Ct quantitation method.

[4] = tested on: IL-10; experiment: Real-time PCR expression in colon; format: in vivo, rat; conditions: DSS colitis rats, compared with DSS group, RT-PCR
Protocol: as §1

[5] = tested on: TNF-α; experiment: Real-time PCR expression in colon; format: in vivo, rat; conditions: DSS colitis rats, compared with DSS group, RT-PCR
Protocol: as §1

[6] = tested on: IFN-γ; experiment: Real-time PCR expression in colon; format: in vivo, rat; conditions: DSS colitis rats; 25 nmol/kg i.p. daily d1-6 (M); compared with DSS group; RT-PCR
Protocol: as §1

[7] = tested on: ZO-1; experiment: Real-time PCR expression in colon; format: in vivo, rat; conditions: DSS colitis rats; 100 nmol/kg i.p. daily d1-6 (H); compared with DSS group; RT-PCR, 2^-ΔΔCt vs GADPH
Protocol: as §1

[8] = tested on: IL-1; experiment: Real-time PCR expression in colon; format: in vivo, rat; conditions: DSS colitis rats, compared with DSS group, RT-PCR
Protocol: as §1

[9] = tested on: IL-7; experiment: Real-time PCR expression in colon; format: in vivo, rat; conditions: DSS colitis rats, compared with DSS group, RT-PCR
Protocol: as §1

[10] = tested on: Claudin-1; experiment: Real-time PCR expression in colon; format: in vivo, rat; conditions: DSS colitis rats, compared with DSS group, RT-PCR
Protocol: as §1

[11] = tested on: IL-6; experiment: Real-time PCR expression in colon; format: in vivo, rat; conditions: DSS colitis rats, among the five groups, RT-PCR
Protocol: as §1

[12] = tested on: experimental rat model of ulcerative colitis (DSS); experiment: Growth performance of DSS colitis rats (body weight, intestinal and colonic length and weight); format: in vivo
Protocol: Animal studies were conducted in accordance with the guidelines of the Zhejiang Farm Animal Welfare Council of China and approved by the ethics committee of Zhejiang Academy of Agricultural Sciences. Thirty-five male Sprague–Dawley rats were allocated into five treatments: control, DSS, DSS + PEG–pGLP-2(L), DSS + PEG–pGLP-2(M) and DSS + PEG–pGLP-2(H). Each treatment was performed in seven replicates on one rat. The rats were housed in a plastic bottom, wire-lid cages, maintained on a 12 h: 12 h light–dark cycle and allowed to acclimatise to the animal facility for 3 days. Rats in control group received only water; other rats were fed with 5% (w/v) DSS through their drinking water for 6 days from the first day of experiment, followed by 2 days of water consumption. The rats from the DSS + PEG–pGLP-2(L), DSS + PEG–pGLP-2(M) and DSS + PEG–pGLP-2(H) groups were intraperitoneally administered with 12.5, 25 and 100 nmol/kg PEG–pGLP-2, respectively, in 0.3 mL of saline solution daily from day 1 to day 6 of the trial. The rats in the control and DSS groups were administered with the same volume of saline solution. During the experimental period, behaviour and body weight were monitored daily. On day 8, all rats were anesthetised and sacrificed to collect their intestinal sample.
Samples collection was prepared as previously described. The segment from the pylorus to the Trietz ligament and from the ileocecal valve to the rectum was considered the duodenum and colon, respectively; these segments were cut free from their mesentery and immediately placed on ice. The duodenum and colon were cleaned of luminal contents, weighed and measured with a balance and a ruler. The middle segments (1 cm) of duodenum and colon were fixed in 10% formalin for 48 h and embedded in paraffin using standard techniques for histology. One centimetre of the distal segment of colon was collected for RNA isolation, which was immediately placed in 1 mL of RNA locker.

[13] = tested on: dipeptidyl peptidase-IV (DPP-IV); conditions: in DPP-IV in vitro; cited from earlier work
[14] = tested on: colon of DSS colitis rats; experiment: Colonic morphology and colonic damage score (histology); format: in vivo, rat; conditions: for Colonic damage score (CDS) of colon / Colon morphological structures: DSS colitis rats; for Colonic damage score (CDS) of colon: compared with DSS group, Fig. 1f; for colonic damage score: extent / colonic damage score: inflammation: grade 0-3; for colonic damage score: extent / colonic damage score: inflammation / colonic damage score: percent involvement / colonic damage score: crypt demage: individual rats, raw data; for colonic damage score: percent involvement: grade (1) 1-25% to (4) 76-100%; for colonic damage score: crypt demage: scale 0-4
Protocol: Histology was prepared as previously described. The paraffin-embedded sections were cut at 4 μm thickness and stained with haematoxylin and eosin. Duodenum villus-plus-crypt height was imaged using an Olympus DP-71 digital camera, and quantification was performed using an image processing system. Approximately 12 longitudinally oriented villi were measured from each H&E-stained section to make n = 1. All measurements were performed in a blinded manner. Colonic damage score (CDS), was evaluated in a blinded manner in tissue sections based on a grade scale ranging from 0 to 3 to measure the amount and depth of inflammation. The amount of crypt damage or regeneration was measured in a scale of 0–4, as indicated in Dieleman et al.. These changes were also quantified in terms of the percentage involvement of the disease process: (1) 1–25%, (2) 26–50%, (3) 51–75% and (4) 76–100%. Each section was separately scored for each feature by establishing the product of the grade for that feature and the percentage involvement. The sum of the products of the four scores was the CDS for each rat.

[15] = in vivo; cited from earlier work
[16] = design: method as in PMID 19773525; conditions: patient; cited from earlier work
[17] = 100 nmol/kg i.p. daily d1-6 (H)
[18] = 12.5 nmol/kg i.p. daily d1-6 (L)
[19] = 5% DSS colitis, male SD rats, 12.5 nmol/kg i.p. daily d1-6 (L), day 8, mean ± SD
[20] = 5% DSS colitis, male SD rats, 25 nmol/kg i.p. daily d1-6 (M), day 8, mean ± SD
[21] = 5% DSS colitis, male SD rats, 100 nmol/kg i.p. daily d1-6 (H), day 8, mean ± SD
[22] = DSS colitis rats, 12.5 nmol/kg i.p. daily d1-6 (L), individual rats, raw data
[23] = DSS colitis rats, 25 nmol/kg i.p. daily d1-6 (M), individual rats, raw data
[24] = DSS colitis rats, 100 nmol/kg i.p. daily d1-6 (H), individual rats, raw data

## HGDGSFSDEMNTVLDNLATRDFINWLLHTKITDSL [p[Gly^2]GLP-2, Porcine [Gly^2] GLP-2]
[1]
  half-life: 49 min

## PEG(2 k)-Lys-GLP-1: PEGylated glucagon-like peptide-1 of Lee et al.
[2]; iv
  half-life increase: 16 fold
[2]; sc
  half-life increase: 3.2 fold

## polyethylene glycosylated porcine glucagon-like peptide-2 (HGDGSFSDEMNTVLDNLATRDFINWLLHTKITDSL; also: mono-PEGylated with mPEG5k-SPA, site not given here; UniProt P01274 146-180, looked up, variant A2G) [PEG–pGLP-2]
[3]; 25 nmol/kg i.p. daily d1-6 (M)
  Expression of occludin in colon: significantly (p < 0.05) increased
[3]; [17]
  Expression of occludin in colon: significantly (p < 0.05) increased
[4]; [18]
  Expression of IL-10 in colon: significantly (p < 0.05) decreased
[4]; 25 nmol/kg i.p. daily d1-6 (M)
  Expression of IL-10 in colon: significantly (p < 0.05) decreased
[5]; [18]
  Expression of TNF-α in colon: significantly (p < 0.05) decreased
[5]; 25 nmol/kg i.p. daily d1-6 (M)
  Expression of TNF-α in colon: significantly (p < 0.05) decreased
[5]; [17]
  Expression of TNF-α in colon: significantly (p < 0.05) decreased
[6]
  Expression of IFN-γ in colon: significantly (p < 0.05) decreased
[7]
  Expression of ZO-1 in colon: significantly (p < 0.05) increased
[8]; [18]
  Expression of IL-1 in colon: significantly (p < 0.05) decreased
[8]; 25 nmol/kg i.p. daily d1-6 (M)
  Expression of IL-1 in colon: significantly (p < 0.05) decreased
[8]; [17]
  Expression of IL-1 in colon: significantly (p < 0.05) decreased
[9]; [18]
  Expression of IL-7 in colon: significantly (p < 0.05) decreased
[9]; 25 nmol/kg i.p. daily d1-6 (M)
  Expression of IL-7 in colon: significantly (p < 0.05) decreased
[9]; [17]
  Expression of IL-7 in colon: significantly (p < 0.05) decreased
[10]; 25 nmol/kg i.p. daily d1-6 (M)
  Expression of claudin-1 in colon: significantly (p < 0.05) decreased
[10]; [17]
  Expression of claudin-1 in colon: significantly (p < 0.05) decreased
[11]; [18]
  Expression of IL-6 in colon: No significant differences
[11]; 25 nmol/kg i.p. daily d1-6 (M)
  Expression of IL-6 in colon: No significant differences
[11]; [17]
  Expression of IL-6 in colon: No significant differences
[12]; [19]
  Body weight change: 21.45 ± 2.00^b %
  Colonic length: 14.74 ± 1.90^a cm
  Intestinal length: 94.50 ± 7.07 cm
[12]; [20]
  Body weight change: 21.46 ± 4.65^b %
  Colonic length: 14.48 cm
  Intestinal length: 99.10 ± 8.03 cm
[12]; [21]
  Body weight change: 20.63 ± 3.4^b %
  Colonic length: 13.42 cm
  Intestinal length: 99.56 ± 6.82 cm
[12]; [22]
  Colonic weight: 3.68 g and 1.94 g and 1.55 g and 1.6 g and 3.59 g and 2.4 g
  Intestinal length: 99.0 cm and 95.0 cm and 102.0 cm and 93.0 cm
  Intestinal weight: 8.25 g and 6.51 g and 7.68 g and 5.4 g and 8.63 g and 9.24 g
  final weight: 240 g and 217 g and 219 g and 157 g and 223 g
[12]; [23]
  Colonic weight: 3.22 g and 2.19 g and 2.7 g and 2.5 g and 3.3 g and 3 g
  Intestinal weight: 6 g and 6.93 g and 9 g and 8.4 g and 8.73 g and 7.5 g
  final weight: 220 g and 180 g and 246 g and 182 g and 230 g and 212 g
[12]; [24]
  Colonic length: 14.7 cm and 12.7 cm and 13.7 cm and 13.0 cm
  Colonic weight: 2.55 g and 2.37 g and 1.85 g and 2.2 g and 2.94 g
  Intestinal weight: 10 g and 7.62 g and 7.22 g and 8 g and 7.87 g and 9.26 g
  final weight: 221 g and 218 g and 214 g and 233 g and 219 g and 242 g
[13]
  half-life (t1/2) longer than that of pGLP-2: 16 fold
[14]; [18]
  Colonic damage score (CDS) of colon: significantly (p < 0.05) decreased
  colonic damage score: extent: 0.00 and 1.00
  colonic damage score: inflammation: 1.00 and 2.00
  colonic damage score: percent involvement: 0.00 and 1.00
  colonic damage score: crypt demage: 0.00 and 1.00
[14]; 25 nmol/kg i.p. daily d1-6 (M), Fig. 1d
  Colon morphological structures: almost normal with no damage
[14]; 25 nmol/kg i.p. daily d1-6 (M)
  Colonic damage score (CDS) of colon: significantly (p < 0.05) decreased
  colonic damage score: extent: 0.00 and 1.00
  colonic damage score: inflammation: 2.00 and 1.00
  colonic damage score: percent involvement: 0.00 and 1.00
  colonic damage score: crypt demage: 0.00 and 3.00 and 1.00
[14]; 100 nmol/kg i.p. daily d1-6 (H), Fig. 1e
  Colon morphological structures: almost normal with no damage
[14]; [17]
  Colonic damage score (CDS) of colon: significantly (p < 0.05) decreased
  colonic damage score: extent: 0.00
  colonic damage score: inflammation: 1.00 and 2.00
  colonic damage score: percent involvement: 0.00 and 1.00
  colonic damage score: crypt demage: 0.00 and 3.00
[1]
  half-life: 202 min
  t1/2: 3.38 h

## porcine glucagon-like peptide-2 (HADGSFSDEMNTVLDNLATRDFINWLLHTKITDSL; Glucagon-like peptide 2; UniProt P01274 146-180, looked up) [pGLP-2]
[15]
  half-life of intact pGLP-2: 8.4 min

## teduglutide
[16]
  t1/2: 2.99 h
